Assay results taken from patent publication US20220265629A1, “TREATMENT OF SYSTOLIC DYSFUNCTION AND HEART FAILURE WITH REDUCED EJECTION FRACTION WITH THE COMPOUND (R)-4-(1-((3-(DIFLUOROMETHYL)-1-METHYL-1H-PYRAZOL-4-YL)SULFONYL)-1-FLUOROETHYL)-N-(ISOXAZOL-3-YL)PIPERIDINE-1-CARBOXAMIDE” (MyoKardia, Inc., priority 2019, published 2022).
Read-outs that look alike come from different tables or passages of the source.

Experiment: Single ascending oral dose study in healthy volunteers: plasma pharmacokinetics
Type: in vivo, human
Settings: human, plasma, oral; for concentration at 6 h: 6 Hours Postdose; for concentration at 12 h: 12 Hours Postdose; for concentration at 24 h: 24 Hours Postdose; for concentration at 48 h: 48 Hours Postdose; for concentration at 72 h: 72 Hours Postdose
Source text: This example describes the first-in-human study of Compound I. Based on its mechanism of action, Compound I may offer a targeted therapy for patients with DCM caused by genetic or nongenetic mechanisms. The study was a randomized, double-blind, placebo-controlled, sequential group, single-ascending (oral) close study in healthy subjects aged 18-55 years. Eight dosing cohorts, each comprising eight healthy subjects, were enrolled. Within each cohort, subjects were randomized 6:2 to Compound I:placebo.
Subjects were resident at the clinical site for up to 5 days and 4 nights, from Day −1 (the day before dosing) to Day 4, and received a single dose of Compound I or placebo on Day 1. ECG telemetry was initiated 1 hour preclose and continued through 48 hours postclose (Day 3). Any subject with a preclose resting HR≥80 beats per minute was considered ineligible and not treated. […] Subjects returned for a safety follow-up visit 7 days (±1 day) after dosing.
All randomized study subjects received either Compound I or matching placebo as a single oral dose after a fasting period of at least 6 hours. Compound I drug substance is a crystalline, free-base, synthetic molecule with a molecular weight of 435.4 g/mol.
Compound I was provided as a powder for oral suspension. Placebo was provided as calcium carbonate powder. Both treatments were closed orally as a suspension. The suspension was made using Ora-Plus® suspending vehicle (Perrigo) and a cherry syrup flavoring vehicle (Humco), mixed 50% to 50%. The suspension was followed by approximately 100 mL water. The suspension was made up within 14 days from the time in which it was closed which was consistent with the stability data on the suspension. The suspension was made up so the volume administered to the subjects who received Compound I was the same at 20 mL.
Each subject received a close according to the cohort in which they were enrolled. Cohorts were enrolled sequentially, with each cohort receiving an escalated dose of Compound I. The closes administered were 3 mg, 10 mg, 25 mg, 50 mg, 100 mg, 175 mg, 350 mg, and 525 mg, respectively.
The concentrations of Compound I in human plasma and urine were quantitated by high performance liquid chromatography with tandem mass spectrometric detection (LC MS/MS) (Biological sample analysis study report Alturas AD17-726). Plasma samples were extracted by protein precipitation with acetonitrile containing internal standard MYK-5654. The calibration curves were linear over concentration range of 0.500 to 1000 ng/mL with a lower limit of quantification (LLOQ) of 0.500 ng/mL.
The PK Population included all subjects who received Compound I. Blood samples were collected for PK assessments. The actual timing of the samples may have been modified and/or up to an additional 2 samples may have been requested by the SRC after review of the data from previous cohorts. It was important that PK sampling occurred as closely as possible to the scheduled time (±10%). Both blood and urine samples were used for PK assessments.
In addition, for subjects who received placebo, a single plasma sample near the predicted tmax of Compound I was evaluated to confirm the lack of circulating Compound I. Plasma concentration data for Compound I was summarized using descriptive statistics, including mean, standard deviation (SD), median, minimum, and maximum values, and percent coefficient of variation. Other PK parameters included (but were not limited to) Cmax, tmax, AUC, t1/2, and MRT. Additionally, the apparent terminal-phase terminal half-life was calculated. The close proportionality of AUC and Cmax was explored.

[1] = 100 mg, 100 mg, read-out: Plasma concentration, Geometric Mean
[2] = 100 mg, 100 mg, read-out: Plasma concentration, Mean
[3] = 100 mg, 100 mg, read-out: Plasma concentration, Median
[4] = 175 mg, 175 mg, read-out: Plasma concentration, Geometric Mean
[5] = 175 mg, 175 mg, read-out: Plasma concentration, Mean
[6] = 175 mg, 175 mg, read-out: Plasma concentration, Median

Structure (SMILES): Cn1cc(S(=O)(=O)[C@@](C)(F)C2CCN(C(=O)Nc3ccon3)CC2)c(C(F)F)n1 [Compound I, (R)-4-(1-((3-(difluoromethyl)-1-methyl-1H-pyrazol-4-yl)sulfonyl)-1-fluoroethyl)-N-(isoxazol-3-yl)piperidine-1-carboxamide]
- Vd/F (50 mg, read-out: Vz/F, Mean): 87.9 L
- Vd/F (50 mg, read-out: Vz/F, Median): 90.6 L
- concentration at 6 h [1]: 934 ng/mL
- concentration at 6 h [2]: 947 ng/mL
- concentration at 6 h [3]: 935 ng/mL
- concentration at 12 h [1]: 661 ng/mL
- concentration at 12 h [2]: 674 ng/mL
- concentration at 12 h [3]: 637 ng/mL
- concentration at 24 h [1]: 374 ng/mL
- concentration at 24 h [2]: 384 ng/mL
- concentration at 24 h [3]: 372 ng/mL
- concentration at 48 h [1]: 71 ng/mL
- concentration at 48 h [2]: 91.1 ng/mL
- concentration at 48 h [3]: 104 ng/mL
- concentration at 72 h [2]: 23.2 ng/mL
- concentration at 72 h [3]: 24.2 ng/mL
- AUC(0-t) (100 mg, read-out: AUC0-24, Geometric Mean): 15200 ng·h/mL
- AUC(0-t) (100 mg, read-out: AUC0-24, Mean): 15400 ng·h/mL
- AUC(0-t) (100 mg, read-out: AUC0-24, Median): 14900 ng·h/mL
- AUC(0-t) (100 mg, read-out: AUC0-48, Geometric Mean): 21100 ng·h/mL
- AUC(0-t) (100 mg, read-out: AUC0-48, Mean): 21400 ng·h/mL
- AUC(0-t) (100 mg, read-out: AUC0-48, Median): 21600 ng·h/mL
- AUC(0-t) (100 mg, read-out: AUC0-last, Geometric Mean): 21700 ng·h/mL
- AUC(0-t) (100 mg, read-out: AUC0-last, Mean): 22700 ng·h/mL
- AUC(0-t) (100 mg, read-out: AUC0-last, Median): 22400 ng·h/mL
- AUC(0-inf) (100 mg, read-out: AUC0-∞, Geometric Mean): 21300 ng·h/mL
- AUC(0-inf) (100 mg, read-out: AUC0-∞, Mean): 21700 ng·h/mL
- AUC(0-inf) (100 mg, read-out: AUC0-∞, Median): 18700 ng·h/mL
- Cmax (100 mg, read-out: Cmax, Geometric Mean): 1000 ng/mL
- Cmax (100 mg, read-out: Cmax, Mean): 1020 ng/mL
- Cmax (100 mg, read-out: Cmax, Median): 983 ng/mL
- half-life (100 mg, read-out: Half-Life Lambda Z, Geometric Mean (converted)): 665 min
- half-life (100 mg, read-out: Half-Life Lambda Z, Mean (converted)): 700 min
- half-life (100 mg, read-out: Half-Life Lambda Z, Median (converted)): 752 min
- MRT (100 mg, read-out: Mean Residence Time, Geometric Mean): 19.1 h
- MRT (100 mg, read-out: Mean Residence Time, Mean): 19.5 h
- MRT (100 mg, read-out: Mean Residence Time, Median): 20.4 h
- Tmax (100 mg, read-out: Tmax, Geometric Mean): 4.42 h
- Tmax (100 mg, read-out: Tmax, Mean): 4.5 h
- Tmax (100 mg, read-out: Tmax, Median): 5 h
- Vd/F (100 mg, read-out: Vz/F, Geometric Mean): 74.9 L
- Vd/F (100 mg, read-out: Vz/F, Mean): 77.9 L
- Vd/F (100 mg, read-out: Vz/F, Median): 82.1 L
- concentration at 6 h [4]: 1260 ng/mL
- concentration at 6 h [5]: 1270 ng/mL
- concentration at 6 h [6]: 1250 ng/mL
- concentration at 12 h [4]: 1040 ng/mL
- concentration at 12 h [5]: 1050 ng/mL
- concentration at 12 h [6]: 1040 ng/mL
- concentration at 24 h [4]: 650 ng/mL
- concentration at 24 h [5]: 664 ng/mL
- concentration at 24 h [6]: 690 ng/mL
- concentration at 48 h [4]: 203 ng/mL
- concentration at 48 h [5]: 212 ng/mL
- concentration at 48 h [6]: 224 ng/mL
- concentration at 72 h [4]: 64 ng/mL
